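48-hour exposure; five concentrations; linearly interpolated endpoints. Abbreviation: GI50, concentration required for 50% inhibition of growth. TGI is the concentration that stops growth completely.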
Assays:
Experiment in all cases: NCI tumour cell line growth inhibition, 48 h
SK-MEL-2 melanoma = tested on: SK-MEL-2 melanoma
HL-60(TB) leukemia = tested on: HL-60(TB) leukemia
UACC-257 melanoma = tested on: UACC-257 melanoma
UO-31 renal = tested on: UO-31 renal
PC-3 prostate = tested on: PC-3 prostate
ACHN renal = tested on: ACHN renal
K-562 leukemia = tested on: K-562 leukemia
A498 renal = tested on: A498 renal
MDA-MB-435 = tested on: MDA-MB-435
DU-145 prostate = tested on: DU-145 prostate
UACC-62 melanoma = tested on: UACC-62 melanoma
NCI-H226 lung = tested on: NCI-H226 lung
RPMI-8226 leukemia = tested on: RPMI-8226 leukemia
KM12 colon = tested on: KM12 colon
SN12C renal = tested on: SN12C renal
HCT-15 colon = tested on: HCT-15 colon
SF-295 CNS = tested on: SF-295 CNS
SK-OV-3 ovarian = tested on: SK-OV-3 ovarian
MDA-MB-231 breast = tested on: MDA-MB-231 breast
U251 CNS = tested on: U251 CNS
SK-MEL-28 melanoma = tested on: SK-MEL-28 melanoma
SF-268 CNS = tested on: SF-268 CNS
IGROV1 ovarian = tested on: IGROV1 ovarian
NCI-H23 lung = tested on: NCI-H23 lung
COLO 205 colon = tested on: COLO 205 colon
HOP-62 NSCLC = tested on: HOP-62 NSCLC
SK-MEL-5 melanoma = tested on: SK-MEL-5 melanoma
LOX IMVI melanoma = tested on: LOX IMVI melanoma
NCI/ADR-RES ovarian = tested on: NCI/ADR-RES ovarian
TK-10 renal = tested on: TK-10 renal
OVCAR-5 ovarian = tested on: OVCAR-5 ovarian
HCC-2998 colon = tested on: HCC-2998 colon
NCI-H460 lung = tested on: NCI-H460 lung
A549 NSCLC = tested on: A549 NSCLC
CCRF-CEM leukemia = tested on: CCRF-CEM leukemia
NCI-H522 lung = tested on: NCI-H522 lung
SW-620 colon = tested on: SW-620 colon
MALME-3M melanoma = tested on: MALME-3M melanoma
BT-549 breast = tested on: BT-549 breast
SF-539 CNS = tested on: SF-539 CNS
HT29 colon = tested on: HT29 colon
T-47D breast = tested on: T-47D breast
HOP-92 NSCLC = tested on: HOP-92 NSCLC
MCF7 breast = tested on: MCF7 breast
RXF 393 renal = tested on: RXF 393 renal
OVCAR-8 ovarian = tested on: OVCAR-8 ovarian
HCT-116 colon = tested on: HCT-116 colon
SNB-19 CNS = tested on: SNB-19 CNS
M14 melanoma = tested on: M14 melanoma
HS 578T breast = tested on: HS 578T breast
CAKI-1 renal = tested on: CAKI-1 renal
786-0 renal = tested on: 786-0 renal
EKVX NSCLC = tested on: EKVX NSCLC
OVCAR-3 ovarian = tested on: OVCAR-3 ovarian
OVCAR-4 ovarian = tested on: OVCAR-4 ovarian
SNB-75 CNS = tested on: SNB-75 CNS
MOLT-4 leukemia = tested on: MOLT-4 leukemia

## CCOC(=O)c1cc2c(c3ccsc13)C1(C)CCC3c4ccc(OC)cc4CCC3C1C2 (centres undefined)
SK-MEL-2 melanoma
  GI50: > 100 µM
  TGI: > 100 µM
HL-60(TB) leukemia
  GI50: > 100 µM
  TGI: > 100 µM
UACC-257 melanoma
  GI50: > 100 µM
  TGI: > 100 µM
UO-31 renal
  GI50: > 100 µM
  TGI: > 100 µM
PC-3 prostate
  GI50: > 100 µM
  TGI: > 100 µM
ACHN renal
  GI50: > 100 µM
  TGI: > 100 µM
K-562 leukemia
  GI50: > 100 µM
  TGI: > 100 µM
A498 renal
  GI50: > 100 µM
  TGI: > 100 µM
MDA-MB-435
  GI50: > 100 µM
  TGI: > 100 µM
DU-145 prostate
  GI50: > 100 µM
  TGI: > 100 µM
UACC-62 melanoma
  GI50: > 100 µM
  TGI: > 100 µM
NCI-H226 lung
  GI50: > 100 µM
  TGI: > 100 µM
RPMI-8226 leukemia
  GI50: > 100 µM
  TGI: > 100 µM
KM12 colon
  GI50: > 100 µM
  TGI: > 100 µM
SN12C renal
  GI50: > 100 µM
  TGI: > 100 µM
HCT-15 colon
  GI50: > 100 µM
  TGI: > 100 µM
SF-295 CNS
  GI50: > 100 µM
  TGI: > 100 µM
SK-OV-3 ovarian
  GI50: 36 µM
  TGI: > 100 µM
MDA-MB-231 breast
  GI50: > 100 µM
  TGI: > 100 µM
U251 CNS
  GI50: > 100 µM
  TGI: > 100 µM
SK-MEL-28 melanoma
  GI50: > 100 µM
  TGI: > 100 µM
SF-268 CNS
  GI50: > 100 µM
  TGI: > 100 µM
IGROV1 ovarian
  GI50: > 100 µM
  TGI: > 100 µM
NCI-H23 lung
  GI50: > 100 µM
  TGI: > 100 µM
COLO 205 colon
  GI50: > 100 µM
  TGI: > 100 µM
HOP-62 NSCLC
  GI50: > 100 µM
  TGI: > 100 µM
SK-MEL-5 melanoma
  GI50: > 100 µM
  TGI: > 100 µM
LOX IMVI melanoma
  GI50: > 100 µM
  TGI: > 100 µM
NCI/ADR-RES ovarian
  GI50: > 100 µM
  TGI: > 100 µM
TK-10 renal
  GI50: > 100 µM
  TGI: > 100 µM
OVCAR-5 ovarian
  GI50: > 100 µM
  TGI: > 100 µM
HCC-2998 colon
  GI50: > 100 µM
  TGI: > 100 µM
NCI-H460 lung
  GI50: > 100 µM
  TGI: > 100 µM
A549 NSCLC
  GI50: > 100 µM
  TGI: > 100 µM
CCRF-CEM leukemia
  GI50: > 100 µM
  TGI: > 100 µM
NCI-H522 lung
  GI50: > 100 µM
  TGI: > 100 µM
SW-620 colon
  GI50: > 100 µM
  TGI: > 100 µM
MALME-3M melanoma
  GI50: > 100 µM
  TGI: > 100 µM
BT-549 breast
  GI50: > 100 µM
  TGI: > 100 µM
SF-539 CNS
  GI50: > 100 µM
  TGI: > 100 µM
HT29 colon
  GI50: 60.3 µM
  TGI: > 100 µM
T-47D breast
  GI50: > 100 µM
  TGI: > 100 µM
HOP-92 NSCLC
  GI50: > 100 µM
  TGI: > 100 µM
MCF7 breast
  GI50: > 100 µM
  TGI: > 100 µM
RXF 393 renal
  GI50: > 100 µM
  TGI: > 100 µM
OVCAR-8 ovarian
  GI50: > 100 µM
  TGI: > 100 µM
HCT-116 colon
  GI50: > 100 µM
  TGI: > 100 µM
SNB-19 CNS
  GI50: > 100 µM
  TGI: > 100 µM
M14 melanoma
  GI50: > 100 µM
  TGI: > 100 µM
HS 578T breast
  GI50: > 100 µM
  TGI: > 100 µM
CAKI-1 renal
  GI50: > 100 µM
  TGI: > 100 µM
786-0 renal
  GI50: > 100 µM
  TGI: > 100 µM
EKVX NSCLC
  GI50: > 100 µM
  TGI: > 100 µM
OVCAR-3 ovarian
  GI50: > 100 µM
  TGI: > 100 µM

## C[C@@H]1CCC[C@]2(C)O[C@H]2CC[C@@](C)(O)[C@@H]2CC3=C(CO)C(=O)O[C@H]3[C@H]1O2
SK-MEL-2 melanoma
  TGI: > 50 µM
HL-60(TB) leukemia
  TGI: > 5 µM
UACC-257 melanoma
  TGI: > 50 µM
UO-31 renal
  TGI: > 50 µM
PC-3 prostate
  TGI: > 50 µM
ACHN renal
  TGI: > 50 µM
K-562 leukemia
  TGI: > 50 µM
A498 renal
  TGI: > 50 µM
MDA-MB-435
  TGI: > 50 µM
DU-145 prostate
  TGI: > 50 µM
UACC-62 melanoma
  TGI: > 50 µM
NCI-H226 lung
  TGI: > 50 µM
RPMI-8226 leukemia
  TGI: > 50 µM
KM12 colon
  TGI: > 50 µM
SN12C renal
  TGI: > 50 µM
HCT-15 colon
  TGI: > 50 µM
SF-295 CNS
  TGI: > 50 µM
SK-OV-3 ovarian
  TGI: > 50 µM
MDA-MB-231 breast
  TGI: > 50 µM
U251 CNS
  TGI: > 50 µM
SK-MEL-28 melanoma
  TGI: > 50 µM
SF-268 CNS
  TGI: > 50 µM
IGROV1 ovarian
  TGI: > 50 µM
NCI-H23 lung
  TGI: > 50 µM
COLO 205 colon
  TGI: > 50 µM
HOP-62 NSCLC
  TGI: > 50 µM
SK-MEL-5 melanoma
  TGI: > 50 µM
LOX IMVI melanoma
  TGI: > 50 µM
NCI/ADR-RES ovarian
  TGI: > 50 µM
TK-10 renal
  TGI: > 50 µM
OVCAR-5 ovarian
  TGI: > 50 µM
OVCAR-4 ovarian
  TGI: > 50 µM
HCC-2998 colon
  TGI: > 50 µM
NCI-H460 lung
  TGI: > 50 µM
A549 NSCLC
  TGI: > 50 µM
CCRF-CEM leukemia
  TGI: > 50 µM
NCI-H522 lung
  TGI: > 50 µM
SW-620 colon
  TGI: > 50 µM
BT-549 breast
  TGI: > 50 µM
SF-539 CNS
  TGI: > 50 µM
HT29 colon
  TGI: > 50 µM
T-47D breast
  TGI: > 50 µM
HOP-92 NSCLC
  TGI: > 50 µM
MCF7 breast
  TGI: > 50 µM
RXF 393 renal
  TGI: > 50 µM
OVCAR-8 ovarian
  TGI: > 50 µM
HCT-116 colon
  TGI: > 50 µM
SNB-19 CNS
  TGI: > 50 µM
SNB-75 CNS
  TGI: > 50 µM
M14 melanoma
  TGI: > 50 µM
HS 578T breast
  TGI: > 50 µM
CAKI-1 renal
  TGI: > 50 µM
786-0 renal
  TGI: > 50 µM
MOLT-4 leukemia
  TGI: > 50 µM
EKVX NSCLC
  TGI: > 50 µM
OVCAR-3 ovarian
  TGI: > 50 µM
